Where “and” joins values, the source holds several entries; their conditions need not be identical. Identical values can stand only once. Inconclusive results and toxic doses are left out. Rule for the calls: active = survival T/C of 150% or more; inactive = T/C below 125% in these data.
Test system: P388 leukemia ip, CD2F1 mice, survival T/C
Experiment: NCI In Vivo Anticancer Drug Screen. Data for tumor model P388 Leukemia (intraperitoneal) in CD2F1 (CDF1) mice
Settings: endpoint: median survival time, higher = longer survival
Procedure, shortened: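 Mice carrying the transplanted tumor received test compound or vehicle. Survival was recorded in each group, and the value is the treated-group measurement divided by that of the vehicle-treated control group.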

[1] = dose: 50.0 mg/kg/injection, schedule: Q01DX005 (ip), vehicle: saline with Tween-80
[2] = dose: 100.0 mg/kg/injection, schedule: Q01DX005 (ip), vehicle: saline with Tween-80
[3] = dose: 200.0 mg/kg/injection, schedule: Q01DX005 (ip), vehicle: saline with Tween-80
[4] = dose: 100.0 mg/kg/injection, schedule: Q04DX003 (ip), vehicle: saline with Tween-80
[5] = dose: 200.0 mg/kg/injection, schedule: Q04DX003 (ip), vehicle: saline with Tween-80
[6] = dose: 400.0 mg/kg/injection, schedule: Q04DX003 (ip), vehicle: saline with Tween-80
[7] = dose: 60.0 mg/kg/injection, schedule: Q01DX005 (ip), vehicle: saline with Tween-80
[8] = dose: 120.0 mg/kg/injection, schedule: Q01DX005 (ip), vehicle: saline with Tween-80
[9] = dose: 240.0 mg/kg/injection, schedule: Q01DX005 (ip), vehicle: saline with Tween-80

Measured: T/C

CN[C@H]1CCc2cc(OC)c(OC)c(OC)c2-c2ccc(OC)c(=O)cc21
active: dose: 8.0 mg/kg/injection, schedule: Q01DX009 (ip), vehicle: water 152 % of control | dose: 10.0 mg/kg/injection, schedule: Q01DX009 (ip), vehicle: water 155 % of control
inactive: dose: 0.5 mg/kg/injection, schedule: Q01DX009 (ip), vehicle: saline 109 % of control | dose: 0.5 mg/kg/injection, schedule: Q01DX009 (ip), vehicle: water 109 % of control | dose: 0.63 mg/kg/injection, schedule: Q01DX009 (ip), vehicle: water 112 % of control | dose: 1.0 mg/kg/injection, schedule: Q01DX009 (ip), vehicle: saline with Tween-80 117 % of control | dose: 1.0 mg/kg/injection, schedule: Q01DX009 (ip), vehicle: saline 104 % of control and 124 % of control | dose: 2.0 mg/kg/injection, schedule: Q01DX009 (ip), vehicle: saline with Tween-80 98 % of control | dose: 2.0 mg/kg/injection, schedule: Q01DX009 (ip), vehicle: saline 104 % of control and 121 % of control | dose: 4.0 mg/kg/injection, schedule: Q01DX009 (ip), vehicle: saline with Tween-80 95 % of control | dose: 4.0 mg/kg/injection, schedule: Q01DX009 (ip), vehicle: saline 104 % of control | dose: 4.0 mg/kg/injection, schedule: Q04DX003 (ip), vehicle: saline with Tween-80 103 % of control | dose: 5.0 mg/kg/injection, schedule: Q01DX009 (ip), vehicle: water 117 % of control | dose: 8.0 mg/kg/injection, schedule: Q01DX009 (ip), vehicle: saline 121 % of control | dose: 8.0 mg/kg/injection, schedule: Q04DX003 (ip), vehicle: saline with Tween-80 101 % of control | dose: 16.0 mg/kg/injection, schedule: Q04DX003 (ip), vehicle: saline with Tween-80 102 % of control | dose: 32.0 mg/kg/injection, schedule: Q04DX003 (ip), vehicle: saline with Tween-80 102 % of control

CCCCOc1cccc2c(NCCNc3c4ccccc4nc4c(OCCCC)cccc34)c3ccccc3nc12
inactive: dose: 0.62 mg/kg/injection, schedule: Q01DX009 (ip), vehicle: other 105 % of control | dose: 1.25 mg/kg/injection, schedule: Q01DX009 (ip), vehicle: other 109 % of control | dose: 2.5 mg/kg/injection, schedule: Q01DX009 (ip), vehicle: other 101 % of control | dose: 5.0 mg/kg/injection, schedule: Q01DX009 (ip), vehicle: other 100 % of control | dose: 10.0 mg/kg/injection, schedule: Q01DX009 (ip), vehicle: other 100 % of control

CC1CC(=O)NC(N)=N1 (stereo unspecified)
inactive: dose: 50.0 mg/kg/injection, schedule: Q01DX005 (ip), vehicle: saline 98 % of control | dose: 100.0 mg/kg/injection, schedule: Q01DX005 (ip), vehicle: saline 108 % of control | dose: 200.0 mg/kg/injection, schedule: Q01DX005 (ip), vehicle: saline 104 % of control

O=NN(CCCl)C(=O)NC1C2CC3CC(C2)CC1C3 (stereo unspecified)
inactive: dose: 1.78 mg/kg/injection, schedule: Q01DX009 (ip), vehicle: other 118 % of control | dose: 2.2 mg/kg/injection, schedule: Q04DX003 (ip), vehicle: other 104 % of control | dose: 2.66 mg/kg/injection, schedule: Q01DX009 (ip), vehicle: other 116 % of control | dose: 3.3 mg/kg/injection, schedule: Q04DX003 (ip), vehicle: other 118 % of control | dose: 100.0 mg/kg/injection, schedule: Q04DX003 (ip), vehicle: other 105 % of control
active: dose: 4.0 mg/kg/injection, schedule: Q01DX009 (ip), vehicle: other 169 % of control | dose: 6.0 mg/kg/injection, schedule: Q01DX009 (ip), vehicle: other 225 % of control | dose: 7.5 mg/kg/injection, schedule: Q04DX003 (ip), vehicle: other 177 % of control | dose: 12.5 mg/kg/injection, schedule: Q04DX003 (ip), vehicle: other 180 % of control | dose: 25.0 mg/kg/injection, schedule: Q04DX003 (ip), vehicle: other 300 % of control | dose: 50.0 mg/kg/injection, schedule: Q04DX003 (ip), vehicle: other 300 % of control

O=S(=O)(Nc1ccc2ccc(NS(=O)(=O)N3CCCCC3)cc2c1)N1CCCCC1
inactive: [1] 104 % of control | [2] 95 % of control | [3] 100 % of control

COc1ccc(C2=NN(c3ccccc3)C(=O)/C2=C(/SC)N2CC2)cc1
inactive: dose: 100.0 mg/kg/injection, schedule: Q04DX003 (ip), vehicle: Klucel (hydroxypropylcellulose) (HPC) 99 % of control | dose: 200.0 mg/kg/injection, schedule: Q04DX003 (ip), vehicle: Klucel (hydroxypropylcellulose) (HPC) 91 % of control | dose: 400.0 mg/kg/injection, schedule: Q04DX003 (ip), vehicle: Klucel (hydroxypropylcellulose) (HPC) 102 % of control

CSc1n[nH]c(-c2cccs2)n1
inactive: dose: 60.0 mg/kg/injection, schedule: Q01DX005 (ip), vehicle: Klucel (hydroxypropylcellulose) (HPC) 104 % of control | dose: 120.0 mg/kg/injection, schedule: Q01DX005 (ip), vehicle: Klucel (hydroxypropylcellulose) (HPC) 105 % of control

O=C1CC2(CCc3ccccc32)C(=O)N1CCN1CCOCC1 (stereo unspecified)
inactive: [1] 100 % of control | [2] 95 % of control | [3] 105 % of control

Cc1ccccc1C1(C)C(=O)c2ccccc2C1=O
inactive: dose: 100.0 mg/kg/injection, schedule: Q04DX002 (ip), vehicle: saline 101 % of control | dose: 200.0 mg/kg/injection, schedule: Q04DX002 (ip), vehicle: saline 106 % of control | dose: 400.0 mg/kg/injection, schedule: Q04DX002 (ip), vehicle: saline 100 % of control

CSC(C#N)(Cc1ccccc1)N1CCOCC1 (stereo unspecified)
inactive: [4] 107 % of control | [5] 103 % of control | [6] 103 % of control

COc1ccc(OC)c(NC(=O)OCc2ccc3c(c2)OCO3)c1
inactive: [7] 98 % of control | [8] 95 % of control | [9] 93 % of control

NC(C/C=C\Cl)C(=O)O (stereo unspecified)
inactive: dose: 50.0 mg/kg/injection, schedule: Q01DX005 (ip), vehicle: Klucel (hydroxypropylcellulose) (HPC) 102 % of control | dose: 100.0 mg/kg/injection, schedule: Q01DX005 (ip), vehicle: Klucel (hydroxypropylcellulose) (HPC) 98 % of control | dose: 200.0 mg/kg/injection, schedule: Q01DX005 (ip), vehicle: Klucel (hydroxypropylcellulose) (HPC) 110 % of control

Ic1ccc(Nc2ncnc3sc4c(c23)CCCC4)cc1
inactive: [1] 111 % of control | [2] 94 % of control | [3] 92 % of control

CC(Sc1ncnc2[nH]ncc12)C(N)=O (stereo unspecified)
inactive: [7] 97 % of control | [8] 97 % of control | [9] 118 % of control

CCNNC(=O)[C@@H]1[C@H](c2cc(OC)c(OC)c(OC)c2)c2cc3c(cc2[C@H](O)[C@H]1CO)OCO3
inactive: [4] 109 % of control | [5] 113 % of control | [6] 104 % of control

CNC(=O)Sc1ccc(C)c(N(C)C)c1
inactive: [1] 111 % of control and 117 % of control | [2] 120 % of control

Oc1cc2c(cc1C(Nc1ccccn1)c1ccc3c(c1)OCO3)OCO2 (stereo unspecified)
inactive: [7] 108 % of control | [8] 108 % of control | [9] 95 % of control

N#C/C(=C\c1ccccc1)C(=O)Nc1ccccc1
inactive: dose: 6.25 mg/kg/injection, schedule: Q01DX009 (ip), vehicle: suspension in saline 99 % of control | dose: 12.5 mg/kg/injection, schedule: Q01DX009 (ip), vehicle: suspension in saline 100 % of control | dose: 25.0 mg/kg/injection, schedule: Q01DX009 (ip), vehicle: suspension in saline 99 % of control | dose: 50.0 mg/kg/injection, schedule: Q01DX009 (ip), vehicle: suspension in saline 97 % of control

O=C(O)CN(CCN(CC(=O)O)CC(=O)O)CC(=O)O.[Cd+2]
inactive: dose: 1.56 mg/kg/injection, schedule: Q01DX009 (ip), vehicle: saline 97 % of control | dose: 3.12 mg/kg/injection, schedule: Q01DX009 (ip), vehicle: saline 91 % of control | dose: 6.25 mg/kg/injection, schedule: Q01DX009 (ip), vehicle: saline 91 % of control and 94 % of control | dose: 12.5 mg/kg/injection, schedule: Q01DX009 (ip), vehicle: saline 92 % of control and 95 % of control | dose: 25.0 mg/kg/injection, schedule: Q01DX009 (ip), vehicle: saline 92 % of control and 97 % of control | dose: 50.0 mg/kg/injection, schedule: Q01DX009 (ip), vehicle: saline 88 % of control

Nc1ccc(-c2c[nH]c(=O)c([N+](=O)[O-])c2)cc1
inactive: dose: 50.0 mg/kg/injection, schedule: Q01DX009 (ip), vehicle: saline with Tween-80 99 % of control | dose: 100.0 mg/kg/injection, schedule: Q01DX009 (ip), vehicle: saline with Tween-80 99 % of control | dose: 200.0 mg/kg/injection, schedule: Q01DX009 (ip), vehicle: saline with Tween-80 100 % of control

— PubChem BioAssay AID330 (DTP/NCI, 2004)
